Reference: publication PMC7251097, “Aspartate/asparagine-β-hydroxylase: a high-throughput mass spectrometric assay for discovery of small molecule inhibitors” (Scientific Reports, 2020)
Where a name gives a salt, the structure may show the parent alone. Read-outs that look alike come from different tables or passages of the source.

Target: T1, His6-AspH315–758 (human aspartate/asparagine-β-hydroxylase, AspH) (Homo sapiens, UniProt Q12797)
T1 construct: N-Terminally His6-tagged human AspH315–758 (His6-AspH315–758) was produced in E. coli BL21 (DE3) cells; made in house; host or cells: E. coli BL21 (DE3), pET-28a(+) vector
T1 sequence (Q12797 315-758): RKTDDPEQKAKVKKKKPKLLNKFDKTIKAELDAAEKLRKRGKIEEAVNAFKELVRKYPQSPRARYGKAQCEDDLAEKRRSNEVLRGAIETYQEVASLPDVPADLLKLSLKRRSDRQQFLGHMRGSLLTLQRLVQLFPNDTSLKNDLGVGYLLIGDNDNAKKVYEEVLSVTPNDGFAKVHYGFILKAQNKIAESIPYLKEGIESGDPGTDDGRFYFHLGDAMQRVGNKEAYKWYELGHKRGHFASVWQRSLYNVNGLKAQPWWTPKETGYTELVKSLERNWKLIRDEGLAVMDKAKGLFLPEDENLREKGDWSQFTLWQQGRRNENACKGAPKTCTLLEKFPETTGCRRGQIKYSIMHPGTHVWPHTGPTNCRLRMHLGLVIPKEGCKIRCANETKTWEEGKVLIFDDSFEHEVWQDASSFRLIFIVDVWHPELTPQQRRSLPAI
Test: SPE-MS AspH inhibition assay (LOPAC screen at fixed 20 μM and IC50 dose-response), hydroxylation of cyclic peptide hFX-CP101–119
Format: biochemical

[1] = LOPAC compound at 20uM, plate 3, conversion of substrate peptide
[2] = LOPAC compound at 20uM, plate 2, conversion of substrate peptide
[3] = LOPAC compound at 20uM, plate 2, normalised to DMSO and 2,4-PDCA controls
[4] = LOPAC compound at fixed 20 uM, plate 1, normalised to DMSO and 2,4-PDCA controls
[5] = LOPAC compound at fixed 20 uM, substrate conversion, plate 1
[6] = AspH activity, fixed compound concentration 20 μM, initial LOPAC screen, 0.5%v/v DMSO, read-out: Inhibition at 20 µM [%]
[7] = LOPAC Plate 4, compound at 20 uM, substrate conversion
[8] = LOPAC Plate 4, compound at 20 uM, read-out: % inhibition
[9] = LOPAC Plate 4, compound at 20 uM

`COc1ccccc1N1CCN(CCN(C(=O)c2ccc(F)cc2)c2ccccn2)CC1.Cl.Cl` [p-MPPF dihydrochloride] was tested, and the “Plate 3 (% conversion)” value [1] was 43.58%.
For `O=C1c2ccccc2C(=O)c2c(NCCc3ccc(O)cc3)ccc(NCCc3ccc(O)cc3)c21` [JFD00244], the “Plate 2 (% conversion)” value [2] was 12.89% and the “Plate 2 (% inhibition)” value [3] was 68.90%.
`CCc1c(C)[nH]c2c1C(=O)C(CN1CCOCC1)CC2` (stereo not shown) [Molindone hydrochloride] was tested, and the “Plate 3 (% conversion)” value [1] was 42.00%.
`CCCCC1(C2CCCC2)Cc2cc(OCC(=O)O)c(Cl)c(Cl)c2C1=O` (stereo in doubt) [R(+)-Butylindazone] was tested, and the “Plate 2 (% conversion)” value [2] was 33.18% and the “Plate 2 (% inhibition)” value [3] was 8.29%.
For `CCCc1nn(C)c2c(=O)[nH]c(-c3cc(S(=O)(=O)N4CCN(C)CC4)ccc3OCC)nc12.O=C(O)CC(O)(CC(=O)O)C(=O)O` [Sildenafil citrate salt], the “Plate 1 (% inhibition)” value [4] was 83.33% and the “Plate 1 (% conversion)” value [5] was 7.89%.
In the case of `O=c1c(O)c(-c2ccc(O)c(O)c2)oc2cc(O)cc(O)c12` [quercetin, reference compound], the IC50 (50 nM His6-AspH315–758, 1.0 μM hFX-CP101–119, 3 μM 2OG, 2 μM Fe(II), 50 mM HEPES pH 7.5, 20 °C, mean ± SD, n = 2 (2,4-PDCA n = 10), read-out: IC50) is reported as 0.24 ± 0.01 µM, the inhibition at 20 µM [6] is reported as 97.8% and the “% conversion” value [7] is reported as 3.10%. For the same compound, the inhibition at 20 µM [8] was 97.8%.
For `O=C(N[C@@H](Cc1ccccc1)C(=O)CCl)OCc1ccccc1` [Z-L-Phe chloromethyl ketone], the “Plate 1 (% conversion)” value was 35.86% and the “Plate 1 (% inhibition)” value was 0.032%.
With `O=C(c1cc(O)c(O)c([N+](=O)[O-])c1)c1ccccc1F` [Ro 41-0960, reference compound] the “% inhibition” value [9] was 97.80% and the “% conversion” value [7] was 3.09%.
For `N[C@@H]1C[C@H]1c1ccccc1` [Tranylcypromine hydrochloride], the “% conversion” value was 34.80%.
For `CN(C)CCCN1c2ccccc2CCc2ccc(Cl)cc21` [Clomipramine hydrochloride], the “Plate 1 (% inhibition)” value [4] was -22.34% and the “Plate 1 (% conversion)” value [5] was 43.38%.
With `CN1CCN(CC(=O)N2c3ccccc3C(=O)Nc3cccnc32)CC1` [Pirenzepine dihydrochloride] the “% conversion” value [7] was 38.08% and the inhibition at 20 µM [8] was -4.73%.
With `NCCc1c[nH]c2ccc(O)cc12` [Serotonin hydrochloride] the “Plate 2 (% conversion)” value was 31.81% and the inhibition at 20 µM (LOPAC compound at 20uM, plate 2, normalised to DMSO and 2,4-PDCA controls, read-out: Plate 2 (% inhibition)) was 12.4%.
For `Cc1cccc(C)c1N=C1NCCCS1` [Xylazine hydrochloride], the “% conversion” value was 33.11%.
`CN(C)CCCN1c2ccccc2Sc2ccc(C(F)(F)F)cc21` [Triflupromazine hydrochloride] showed an inhibition at 20 µM of -23.1%.
In the case of `O=C(/C=C/c1ccc(O)c(O)c1)OCCc1ccccc1` [Caffeic acid phenethyl ester, reference compound], the inhibition at 20 µM [6] is reported as 98.5%, the “Plate 1 (% inhibition)” value [4] is reported as 98.53% and the “Plate 1 (% conversion)” value [5] is reported as 2.78%.
With `COc1ccccc1N1CCN(CCCNc2cc(=O)n(C)c(=O)n2C)CC1` [Urapidil hydrochloride] the “% conversion” value [7] was 27.32%.
`NS(=O)(=O)c1nn2cc(-c3ccccc3)nc2s1` [AEG 3482] was tested, and the “Plate 3 (% conversion)” value was 35.73%.
In the case of `O=C(O)c1ccccc1Nc1ccccc1` [N-Phenylanthranilic acid], the “Plate 1 (% inhibition)” value [4] is reported as 20.57% and the “Plate 1 (% conversion)” value [5] is reported as 28.96%.
With `C[C@H](c1ccc(F)cc1CCCC(=O)O)N(c1cc(F)ccc1F)S(=O)(=O)c1ccc(Cl)cc1` [BMS-299897] the “% inhibition” value [9] was -0.66% and the “% conversion” value [7] was 36.70%.
For `COCCOC(=O)C1=C(C)NC(C)=C(C(=O)OC(C)C)C1c1cccc([N+](=O)[O-])c1` (stereo not shown) [Nimodipine], the “Plate 3 (% conversion)” value [1] was 43.84%.
In the case of `C[C@@H](Oc1cc(-c2cnn(C3CCNCC3)c2)cnc1N)c1c(Cl)ccc(F)c1Cl` [Crizotinib], the “Plate 5 (% inhibition)” value (plate 5 (Pfitzer), test compounds at fixed 20 μM) is reported as -31.92% and the “Plate 5 (% conversion)” value (plate 5 (Pfitzer), test compounds at fixed 20 μM, mean conversion DMSO 32.88) is reported as 47.18%.
For `CC(C)=CCC/C(C)=C/COc1ccc2ccc(=O)oc2c1` [Auraptene], the “% conversion” value [7] was 37.42%.
In the case of `COc1ccc(C2CNC(=O)C2)cc1OC1CCCC1` (stereo not shown) [Rolipram], the “% conversion” value [7] is reported as 37.72% and the inhibition at 20 µM [8] is reported as -3.65%.
`CCc1ccccc1OC[C@@H](O)CN[C@H]1CCCc2ccccc21.O=C(O)C(=O)O` [SR 59230A oxalate] was tested, and the “% conversion” value was 13.86% and the “% inhibition” value (20 µM) was 66.24%.
With `CCCCCN(CCCCC)C(=O)C(CCC(=O)O)NC(=O)c1ccc(Cl)c(Cl)c1` (stereo not shown) [Lorglumide sodium] the “Plate 3 (% conversion)” value [1] was 33.56%.
With `Cc1ccc(S(=O)(=O)/C=C/C#N)cc1` [Bay 11-7082] the “% conversion” value [7] was 24.61%.
LY-310,762 hydrochloride was tested, and the “Plate 3 (% conversion)” value [1] was 45.55%.
In the case of `COc1cc([C@@H]2c3cc4c(cc3[C@H](O)[C@H]3COC(=O)[C@H]23)OCO4)cc(OC)c1OC` [Podophyllotoxin], the “Plate 3 (% conversion)” value is reported as 35.15%.
